According to patent publication US7897569B2, “Use of HMGB fragments as anti-inflammatory agents” (The Feinstein Institute for Medical Research, priority 2001, dated 2011):
Ends that are not written are not given here.

Tested on: RAW 264.7 cells
Test: TNF release from RAW 264.7 cells (L929 cytotoxicity bioassay)
Format: cell-based, murine
Details: for TNF release by synthetic peptide fragment of B box: no polymyxin B
Protocol: Murine macrophage-like RAW 264.7 cells (American Type Culture Collection, Rockville, Md.) were cultured in RPMI 1640 medium (Life Technologies, Grand Island N.Y.) supplemented with 10% fetal bovine serum (Gemini, Catabasas, Calif.), penicillin and streptomycin (Life Technologies) and were used at 90% confluence in serum-free Opti-MEM I medium (Life Technologies, Grand Island, N.Y.). […] Polymyxin B was not used in experiments of synthetic peptide studies.
TNF release was measured by a standard murine fibroblast L929 (ATCC, American Type Culture Collection, Rockville, Md.) cytotoxicity bioassay (Bianchi et al., Journal of Experimental Medicine 183:927-936, 1996) with the minimum detectable concentration of 30 pg/ml. Recombinant mouse TNF was obtained from R&D system Inc., (Minneapolis, Minn.). Murine fibroblast L929 cells (ATCC) were cultured in DMEM (Life Technologies, Grand Island, N.Y.) supplemented with 10% fetal bovine serum (Gemini, Catabasas, Calif.), penicillin (50 units/ml) and streptomycin (50 μg/ml) (Life Technologies) in a humidified incubator with 5% CO2.
The effect of the mutants on TNF release from Murine macrophage-like RAW 264.7 cells (ATCC) was carried out as follows. RAW 264.7 cells were cultured in RPMI 1640 medium (Life Technologies, Grand Island N.Y.) supplemented with 10% fetal bovine serum (Gemini, Catabasas, Calif.), penicillin and streptomycin (Life Technologies). Polymyxin (Sigma, St. Louis, Mo.) was added at 100 units/ml to suppress the activity of any contaminating LPS. Cells were incubated with 1 μg/ml of full length (wild-type) HMGB1 and each HMGB1 mutant protein in Opti-MEM I medium for 8 hours, and conditioned supernatants (containing TNF which had been released from the cells) were collected and TNF released from the cells was measured by a standard murine fibroblast L929 (ATCC) cytotoxicity bioassay (Bianchi et al., supra) with the minimum detectable concentration of 30 pg/ml. Recombinant mouse TNF was obtained from R & D Systems Inc., (Minneapolis, Minn.) and used as control in these experiments. Data in FIG. 1 are all presented as mean+SEM unless otherwise indicated. (N=6-10).
To further examine the effect of HMGB1 B box on cytokine production, varying amounts of HMGB1 B box were evaluated for the effects on TNF, IL-1 B, and IL-6 production in murine macrophage-like RAW 264.7 cells. Conditioned media were harvested and measured for TNF, IL-1β and IL-6 levels. TNF levels were measured as described herein, and IL-1β and IL-6 levels were measured using the mouse IL-1β and IL-6 enzyme-linked immunosorbent assay (ELISA) kits (R&D System Inc., Minneapolis, Minn.) and N>5 for all experiments.
The kinetics of B box-induced TNF release was also examined. TNF release and TNF mRNA expression was measured in RAW 264.7 cells induced by B box polypeptide or GST tag polypeptide only used as a control (vector) (10 μg/ml) for 0 to 48 hours. Supernatants were analyzed for TNF protein levels by an L929 cytotoxicity assay (N=3-5) as described herein. For mRNA measurement, cells were plated in 100 mm plate and treated in Opti-MEM I medium containing B box polypeptide or the vector alone for 0, 4, 8, or 24 hours, as indicated in FIG. 2D. The vector only sample was assayed at the 4 hour time point. Cells were scraped off the plate and total RNA was isolated by RNAzol B method in accordance with the manufacturer's instructions (Tel-Test “B”, Inc., Friendswood, Tex.). TNF (287 bp) was measured by RNase protection assay (Ambion, Austin, Tex.). Equal loading and the integrity of RNA was verified by ethidium bromide staining of the RNA sample on agarose-formaldehyde gel. […] TNF mRNA expression was maximal at 4 hours and decreased at 8 and 24 hours. […] A similar study was carried out measuring TNF protein released from RAW 264.7 cells 0, 4, 8, 24, 32 or 48 hours after administration of B box or vector only (GST tag), using the L929 cytotoxicity assay described herein. […] Data are representative of three separate experiments. […]

16-25: Synthetic peptide fragment, amino acids 16-25 of the HMGB1 B box (SEQ ID NO:20) (LFCSEYRPKI)
TNF release by synthetic peptide fragment of B box (peptide 10 μg/ml, 10 hours): did not induce TNF release

30-49: Synthetic peptide fragment, amino acids 30-49 of the HMGB1 B box (SEQ ID NO:20) (PGLSIGDVAKKLGEMWNNTA)
TNF release by synthetic peptide fragment of B box (peptide 10 μg/ml, 10 hours): did not induce TNF release

45-64: Synthetic peptide fragment, amino acids 45-64 of the HMGB1 B box (SEQ ID NO:20) (WNNTAADDKQPYEKKAAKLK)
TNF release by synthetic peptide fragment of B box (peptide 10 μg/ml, 10 hours): did not induce TNF release

60-74: Synthetic peptide fragment, amino acids 60-74 of the HMGB1 B box (SEQ ID NO:20) (AAKLKEKYEKDIAAY)
TNF release by synthetic peptide fragment of B box (peptide 10 μg/ml, 10 hours): did not induce TNF release

fkdpnapkrlpsafflfcse (FKDPNAPKRLPSAFFLFCSE; not fully specified; printed as fkdpnapkrlpsafflfcse) [1-20-mer]
TNF stimulating activity relative to full length B box and HMGB1 (peptide 10 μg/ml, 10 hours): less potent than either the full length synthetic B box (1-74-mer), or full length HMGB1
TNF release by synthetic peptide fragment of B box (peptide 10 μg/ml, 10 hours): TNF-stimulating activity was retained

B1: carboxyl-truncated HMGB1: Human HMGB1 mutant in which the carboxy terminus was deleted, SEQ ID NO:19 (protein)
chain: MGKGDPKKPTGKMSSYAFFVQTCREEHKKKHPDASVNFSEFSKKCSERWKTMSAKEKGKFEDMAKADKARYEREMKTYIPPKGETKKKFKDPNAPKRLPSAFFLFCSEYRPKIKGEHPGLSIGDVAKKLGEMWNNTAADDKQPYEKKAAKLKEKYEKDIAAYRAKGKPDAAKKGVVKAEKSK
TNF release (1 μg/ml protein, 8 hours, RAW 264.7 cells): significantly stimulated TNF release
